In patent US4883797A, “Derivatives of piperazine, method for making the same” (Ferrer Internacional, S.A., priority 1982, dated 1989):

Tests used:
[1] = tested on: heart rate; experiment: Effect on heart rate (bradycardia), anesthetized rats, endovenous; format: in vivo; settings: for ED50: Rattus norvegicus, iv
Source text: (§1) The decrease in arterial pressure (Parameter 2) and the effects on heart rate (Parameter 3) have been evaluated according to the usual conventional methods used in Cardiovascular Pharmacology.

[2] = tested on: cerebral flow; experiment: Cerebral flow change by electromagnetic flowmetry, anesthetized dogs; format: in vivo; settings: endovenous, 5 mg/kg, variation over mean values before testing
Procedure: (§2) Both parameters have been measured by electromagnetic flowmetry (Narcomatic-Electromagnetic flowmeter) on 12 anesthetized dogs. The hemodynamic parameter average of animals before testing were pO2 =95.40±3.98; pCO2 =34.31.congruent.2.38 and pH-7.297±0.315 by endovenously administering the compounds of a 5 mg/kg dosis.

[3] = tested on: arterial pressure; experiment: Mean arterial pressure determined simultaneously with cerebral and carotid flows, anesthetized dogs; format: in vivo; settings: endovenous, 5 mg/kg, variation over mean values before testing
Procedure: (§3) The measurements of cerebral and carotid flow changes (parameters 4 and 5) have been made using the most sophisticated methods. Both parameters have been measured by electromagnetic flowmetry (Narcomatic-Electromagnetic flowmeter) on 12 anesthetized dogs. The hemodynamic parameter average of animals before testing were pO2 =95.40±3.98; pCO2 =34.31.congruent.2.38 and pH-7.297±0.315 by endovenously administering the compounds of a 5 mg/kg dosis.
(§4) Simultaneously with the measuring of cerebral and carotid flows, the mean arterial pressure and cerebral vascular resistance (parameters 6,7) in each animal was determined. These parameters were measured according to the conventional method in Cardiovascular Pharmacology and the values were tabulated as the variation rate (Increase or Decrease) over mean values before testing.

[4] = tested on: mice; settings: endovenous
[5] = tested on: mean arterial pressure; experiment: Decrease in mean arterial pressure (hypotension), anesthetized rats, endovenous; format: in vivo; settings: for ED50: Rattus norvegicus, iv
Source text: as §1

[6] = tested on: carotid flow; experiment: Carotid flow change by electromagnetic flowmetry, anesthetized dogs; format: in vivo; settings: endovenous, 5 mg/kg, variation over mean values before testing
Procedure: as §2

[7] = tested on: mice; experiment: Antiarrhythmic activity, method of Ferrini et al, endovenous administration to mice; format: in vivo; settings: for ED50: Mus musculus, iv, read-out: Antiarrythmic activity ED50
Source text: Antiarrhythmic activity (Parameter 1) has been determined according to the method of Ferrini et al (Arzn.-Forsch., 29 (II), 9a, 1947-77, 1979).

[8] = tested on: cerebral vascular resistance; experiment: Cerebral vascular resistance determined simultaneously with cerebral and carotid flows, anesthetized dogs; format: in vivo; settings: endovenous, 5 mg/kg, variation over mean values before testing
Procedure: as §3, §4

[9] = in vivo; settings: mouse, iv

Structure (SMILES)	Heart rate, Bradycardia ED50 [1] [mg/kg]	Cerebral flow Increase [2] [%]	Arterial pressure Decrease [3] [%]	Acute toxicity LD50 [4] [mg/kg]	Mean arterial pressure, Hypotension ED50 [5] [mg/kg]	Carotid flow Decrease [6] [%]	Antiarrythmic activity ED50 [7] [mg/kg]	Cerebral vascular resistance Decrease [8] [%]	ED50 [1] [mg/kg]	LD50 [9] [mg/kg]	ED50 [5] [mg/kg]	ED50 [7] [mg/kg]
C=CCN1CCN(C(c2ccccc2)c2ccccc2)CC1 [Aligeron 2HCI, reference compound]	4.8	64.0	36.0	38.5 ± 1.06	1.3	21.3	4.4	61.0				
C(=C\c1ccccc1)/CN1CCN(C(c2ccccc2)c2ccccc2)CC1 [Cinnarizine 2HCI, reference compound]		76.7	43.0			62.8		68.0				
Cl.Cl.c1ccc(C(c2ccccc2)N2CCN(CC3CC3)CC2)cc1 [Compound 1, 1-Benzhydryl-4-cyclopropylmethyl-piperazine dihydrochloride]		55.0	30.0			68.0		55.0	3.4	25.6 ± 4.39	2.7	4.2
C=C(CN1CCCCC1)CN1CCN(C(c2ccccc2)c2ccccc2)CC1 [Compound 6, 1-Benzhydryl-4-(2-(1-piperidinylmethyl)-2-propenyl)piperazine]		70.0	58.0			22.0		75.3	1.7	8.6 ± 0.54	1.5	4.3
CCOC(=O)C=CCN1CCN(C(c2ccccc2)c2ccccc2)CC1 [Compound 7]		32.0	27.3			13.0		44.7	3.8	100 ± 6.27	2.1	23
O=C(CCCN1CCN(C(c2ccccc2)c2ccccc2)CC1)c1ccccc1 [Compound 11]		81.0	50.0			40.9		74.0	2.1	21 ± 1.72	0.43	6.9
c1ccc(C(c2ccccc2)N2CCN(CCCC3(c4ccccc4)OCCO3)CC2)cc1 [Compound 13]		140.1	35.0			25.7		73.1	2.6	42.5 ± 3.05	1.5	4
O=C1NCC(CN2CCN(C(c3ccccc3)c3ccccc3)CC2)O1 (stereo not drawn) [Compound 15]		38.5	45.5			60.0		60.3	3	40 ± 4.19	1.2	16.5
